In patent US20100234366A1, “Use of Strobilurins for the Treatment of Disorders of Iron Metabolism” (BSF SE, priority 2006, published 2010):

Tests used:
HFE mice = assay: Treatment of HFE mice (serum iron level, model of hemochromatosis); assay type: in vivo, mouse; conditions: for reduction of serum iron concentration compared with control group: 2000 ppm in the food, 7 days
Protocol: This genetic defect leads to HFE mice having an elevated iron level in the liver, and this can serve as model of hemochromatosis disorder in humans. The HFE mice employed in the experiments were 12 to 23 weeks old (obtained from University College London, Department of Biochemistry and Molecular Biology).
The housing conditions of the mice corresponded to typical standards as have also been described in Example 1. In the experiments, investigations were carried out both with male HFE mice and with female HFE mice. In each case one group of animals received over a period of 7 days 2000 ppm of the phenylacetic acid derivative orysastrobin each day. The product was supplied freely in the food. The comparison group received only the regular food.

male Wistar rats [1] = assay: Treatment of rats with an elevated iron level (iron level in the blood); assay type: in vivo, rat
Protocol: Two grams of the phenylacetic acid derivative orysastrobin were prepared by known methods and purified by conventional methods.
Six-week old male Wistar rats (Elévage Janvier, France) were employed for the experiments. These rats, which were housed under conventional conditions (20-24° C., 30-70% humidity, 12 hours illumination, standard food) were divided into five groups of equal size.
The first group was treated with no iron compound and no strobilurin derivative.
The second group was treated only with 200 mg of the phenylacetic acid derivative orysastrobin (as suspension by gavage).
The third group received a single intramuscular injection of 50 mg/kg of an iron(III) hydroxide-dextran complex (Myofer® 100), 1 ml of the injection solution comprising 320 mg of the complex (equivalent to 195 mg of Fe(OH)3).
The fourth group received both an injection of 50 mg/kg of the iron complex and, after 6 hours, a dose of 200 mg/kg of the strobilurin derivative by gavage.
The fifth group received both an injection of 50 mg/kg of the iron complex and, after 24 hours, a dose of 200 mg/kg of the strobilurin derivative by gavage.
24 hours before the start of the test, a blood sample was taken from all the rats, in each case at 8 o'clock in the morning of the preceding day, and was analyzed. The iron complex and/or the strobilurin derivative was administered at 8 o'clock in the morning of the day of the experiment. Further blood samples were taken from all the rats at 2 o'clock in the afternoon of the day of the experiment and at 8 o'clock in the morning of the next day, and were analyzed.

male Wistar rats [2] = assay: Treatment of rats with dimoxystrobin (iron concentration in the blood); assay type: in vivo, rat; conditions: for average iron level in the blood: fourth group: 6-week old rats; for average iron level in the blood / blood level of iron: 500 ppm each day via the food; for blood level of iron: second group: 3-week old rats; for level of iron in the blood: sixth group: 3-week old rats, 250 ppm each day
Protocol: 10 g of the phenylacetic acid derivative dimoxystrobin were prepared by known methods and purified by conventional methods.
Both 3-week old and 6-week old male Wistar rats (see Example 1) were employed for the subsequent experiments. These rats were divided into 6 equally sized groups of 10 rats. The rats were housed under conventional conditions.
The first group consisted of 3-week old rats. They received only the regular food over the entire period of the experiment.
The second group likewise consisted of 3-week old rats. The animals received 500 ppm (milligrams of test substance per […]) of dimoxystrobin each day. It was supplied via the food.
The third group consisted of 6-week old rats which received no active ingredient via the food.
The fourth group consisted of 6-week old rats which received 500 ppm dimoxystrobin via the food each day.
The fifth group consisted of 3-week old rats which received no active ingredient.
The sixth group consisted of 3-week old rats which received 250 ppm of the test substance dimoxystrobin each day.
The iron concentrations in the blood were determined both after 2 days and after 7 days.

finding at the duodenum (male Wistar rats [2]; rats treated with dimoxystrobin, occurred only in the adult animals)	Compound	iron level (serum) (HFE mice; female HFE mice, 2000 ppm each day in the food, after one week, control 51.2)	reduction of serum iron concentration compared with control group (HFE mice; female HFE mice)	serum iron level (HFE mice; male HFE mice, 2000 ppm each day in the food, after one week, control 40.06)	reduction of serum iron concentration compared with control group (HFE mice; male HFE mice)	iron level in the blood (male Wistar rats [1]; fifth group: 50 mg/kg iron complex i.m. plus 200 mg/kg orysastrobin by gavage, after 24 hours, iron only 147.8)	iron level in the blood (male Wistar rats [1]; fourth group: 50 mg/kg iron complex i.m. plus 200 mg/kg orysastrobin by gavage, after 6 hours, iron only 153.9)	iron level in the blood (male Wistar rats [1]; second group: only 200 mg orysastrobin by gavage, no iron, 6 hours after administration, untreated control 47.8)	iron level in the blood (male Wistar rats [1]; second group: only 200 mg orysastrobin by gavage, no iron, after 24 hours, untreated control 47.8)	average iron level in the blood (male Wistar rats [2]; after 2 days, control 43.1)	average iron level in the blood (male Wistar rats [2]; after 7 days, control 44.0)	blood level of iron (male Wistar rats [2]; after 2 days, control 92.6)	blood level of iron (male Wistar rats [2]; after 7 days)	level of iron in the blood (male Wistar rats [2]; after 2 days, control 96.7)	level of iron in the blood (male Wistar rats [2]; after 7 days, control 96.1)
	CNC(=O)/C(=N/OC)c1ccccc1CO/N=C(C)/C(=N/OC)C(/C)=N/OC [orysastrobin, (2E)-2(methoximino)-2-[2-[(3E,5E,6E)-5-(methoximino)-4,6-dimethyl-2 , 8-dioxa-3,7-diazanona-3,6-dien-1-yl]phenyl]-N-methylacetamide]	36.66 µmol/L	about 28%	30.62 µmol/L	about 24%	91.9 µmol/L	83.1 µmol/L	20.6 µmol/L	26.3 µmol/L						
distinct thickening of the duodenum	CNC(=O)/C(=N/OC)c1ccccc1COc1cc(C)ccc1C [dimoxystrobin, (E)-2(methoximino)-N-methyl-2-[α-(2,5-xylyloxy)-o-tolyl]acetamide]									34.2 µmol/L	36 µmol/L	35.8 µmol/L	33.6 µmol/L	56 µmol/L	59.7 µmol/L
